Entries after “also recorded” stand apart in the source; their conditions may differ.
How the values were obtained:
Type in all cases: cell-based, human
[1] = tested on: Hox genes in malignant cell lines; assay: RT-PCR of HOX gene expression in malignant cell lines; conditions: 20 μg/ml, at least two different Hox genes in each case
Protocol: A number of cell lines representing different malignancies were grown in culture for seven days, and HXP peptide or the control peptide CXP were added to a final concentration of 20 μg/ml on day 3. The bars represent the fold increase of each cell line over the seven days; the empty, dashed bars indicate the CXP peptide treated cells, whilst the solid bars indicate the addition of HXP peptide. Error bars represent the standard error the mean, and n is the number of experiments performed. The cell lines used were: AML—KG1a; Bladder—HT; Breast—SKBR3; Cervical—HeLa; Colon—Colo41; Gastric—MKN-45; Large cell lung cancer—MES; Melanoma—DX3; Ovarian—1847; Pancreatic—Panc-Tu1; Prostate—LNCAP; Renal—HT1376; Small cell lung cancer—NCI-h510A. The change in the expression of the HOX genes expressed by each cell line was assessed by RT-PCR on RNA extracted from the cells at the end of seven days. ‘HOX gene inactivated’ means that the level of expression of each of the listed HOX genes was at least five fold lower in the HXP peptide treated cells compared to the control. *Analysis not yet complete.
The sequences of RT-PCR primers used are set out below. For each primer pair, the amplified region is given in relation to the known gene sequence as available through GenBank (http://www.ncbi.nlm.nih.gov/entrez).

[2] = tested on: CD133+ cells; assay: CD133+ cell proliferation in cytokine supplemented liquid culture over 18 days
Protocol: CD133+ cells (another name for AC133+ cells) were seeded in duplicate at 4×10^4 cells/ml in IMDM (Life Technologies), 10% FCS (Sigma Aldrich) and gentamycin (50 μg/ml Life Technologies) and Thrombopoietin (TPO) 10 ng/ml, Flt3-Ligand (FL) 50 ng/ml & c-KitL (K) 20 ng/ml), all obtained from R and D systems Ltd., UK. (Forraz et al., 2002). The HXP peptide (N-term: WYPWMKKHHRQIKIWFQNRRMKWKK: C-term; Eurogentec, Belgium) and control CXP peptide (N-term: WCCLADRHGRQIKIWFQNRRMKWKK: C-term; Eurogentec, Belgium) were added to culture medium at a concentration of 20 μg/ml. To withdraw peptides from culture, cells were washed twice in IMDM or RPMI and reseeded at prewash cell densities. Primary cells were cultured for 3 weeks at 37° C., 5% CO2 in humidified atmosphere and enumerated by a […] exclusion method with a heamocytometer.

[3] = tested on: AC133+ cells; assay: Short-term ex-vivo AC133+ cell expansion culture with HXP peptide, trypan blue cell count
Protocol: Umbilical Cord Blood (UCB) specimens were collected from full-term deliveries scheduled for elective caesarian sections following hospital ethical regulations.
Samples were diluted 1 in 4 in PBS supplemented with a citrate-based anti-coagulant (0.6% ACD-A, Baxter, France) and Bovine Serum Albumin (0.5% fraction V, Sigma Aldrich, UK) at pH=7.4 and referenced as “ACD-A buffer”. Diluted UCB was carefully overlaid in a 1:4 ratio onto a research grade Ficoll-Paque solution (d:1.077 g/cm^3, Pharmacia Biotech, Sweden) prior to Centrifugation (400 g, 30 minutes, 22° C.). The mononuclear cells (MNC) layer was extracted, washed twice in ACD-A Buffer, pelleted (400 g, 10 minutes) before resuspending in ACD-A buffer and cell aliquots taken for cell viability/enumeration using trypan blue (Sigma Aldrich).
AC133+ cells were obtained from MNC after immunomagnetic separation using the AC133 mini-MACS selection kit (Miltenyi Biotec, Germany): labelling volume 500 μl/10^8 cells in ACD-A buffer containing Fc Receptor-blocking reagent (100 μl, 5 min incubation, 4° C.) before adding colloidal super-paramagnetic MACS MicroBeads conjugated to monoclonal mouse anti-human AC133/1 antibody (100 μl IgG1 isotype, 25 min incubation, 4° C.). Cells were then washed (5 ml ACD-A buffer, 400 g, 10 min, 4° C.) before resuspended cells in 500 μl ACD-A buffer were applied to a chilled MACS positive selection column (MS+/RS+) on a magnet. The column was rinsed with cool ACD-A buffer (4×500 μl) and the AC133− cell population retained at 4° C. After magnet removal AC133+ cells were eluted with 1 ml of cold ACD-A buffer. The AC133+ cell fraction was reapplied to a new column, prior to cell enumeration and viability assays.
AC133+ cells were seeded in duplicate in liquid culture system at 2-4×10^4 cells/ml. […] Cultured cells were then counted at various time points using trypan blue exclusion method described above.

[4] = tested on: KG1a, KG1, HL60 and U937 cells; assay: Cell cycle analysis (propidium iodide, flow cytometry) of leukaemic cell lines (Example 1)
Protocol: Cells to be investigated were harvested and washed in PBS at 400 g for 10 min. Pelleted cells were then fixed in ice-cold 70% ethanol. Fixed cells were subsequently washed twice in PBS (600 g; 10 min) and incubated in 100 μl of ribonuclease (100 μg/ml; Sigma Aldrich) for 5 min (room temperature) prior to addition of 400 μl of propidium iodide (50 μg/ml; Sigma Aldrich) and 30 minutes incubation (37° C.). Cells were then analysed for cell cycle status on FACScan flow cytometer (Becton Dickinson, USA) and using WinMDI and Cylchred softwares.

Substance: WYPWMKKHHRQIKIWFQNRRMKWKK [HXP peptide]
- Hox gene expression in each cancer cell line with reduced proliferation [1]: transcriptionaly silenced
- inhibition of CD133+ cell growth compared to CXP peptide-treated cells ([2]; day 18, 20 μg/ml, average, p<0.001): 3.7 fold
- CD133+ cell proliferation after withdrawal of HXP peptide ([2]; withdrawal at day 7, compared to 18 day-HXP peptide treated cells, p<0.01): resumption of cell proliferation
- cell growth of AC133+ cells ([3]; 20 μg/ml, TPOFLK supplemented liquid culture): slowing their growth; also recorded: slowed
- AC133+ cell proliferation after withdrawal of HXP peptide ([3]; withdrawal at 7 days): started to proliferate again
- effect on cell cycle of more mature leukaemic cells ([4]; HL60 and U937): slowed
- effect on cell cycle of immature leukaemic cells ([4]; KG1 and KG1a): may be propelled into the cell cycle

Reference: patent US7728105B2, “Peptides impairing PBX dependent gene regulation” (St. George's Hospital Medical School, priority 2002, dated 2010)
